According to patent US20140148454A1, “SUBSTITUTED AMINO-ACRYLCARBOXAMIDES AS KCNQ2/3 MODULATORS” (GRÜNENTHAL GMBH, priority 2012, published 2014):

Target: T1, KCNQ2/3 channels (Homo sapiens, UniProt O43525+O43526)
T1 construct: expressed in transfected cells; host or cells: CHO-K1 cells kept under selection antibiotics
Assay: Fluorescence assay using a voltage sensitive dye (fluorimetry)
Type: cell-based
Conditions: CHO-K1 cells expressing KCNQ2/3 channels; for Emax: relative to retigabine = 100%, read-out: Fluorimetry % efficacy (retigabine = 100%); for EC50: voltage-sensitive dye, read-out: Fluorimetry EC50/IC50
Method: Method I. Fluorescence Assay Using a Voltage Sensitive Dye (Fluorimetry) […] CHO-K1 cells expressing KCNQ2/3 channels are cultivated adherently at 37° C., 5% CO2 and 95% humidity in cell culture bottles (e.g. 80 cm^2 TC flasks, Nunc) with DMEM-high glucose (Sigma Aldrich, D7777) including 10% FCS (PAN Biotech, e.g. 3302-P270521) or alternatively MEM Alpha Medium (1×, liquid, Invitrogen, #22571), 10% fetal calf serum (FCS) (Invitrogen, #10270-106, heat-inactivated) and the necessary selection antibiotics.
Before being sown out for the measurements, the cells are washed with 1×DPBS buffer Ca^2+/Mg^2+-free (e.g. Invitrogen, #14190-094) and detached from the bottom of the culture vessel by using Accutase (PAA Laboratories, #L11-007) (incubation with Accutase for 15 min at 37° C.). The cell number is determined using a CASY™ cell counter (TCC, Scharfe System). Depending on the optimal density for each individual cell line, 20,000-30,000 cells/well/100 μl are seeded onto 96-well Corning™ CeIIBIND™ assay plates (Flat Clear Bottom Black Polystyrene Microplates, #3340). Freshly seeded cells are then left to settle for one hour at room temperature, followed by incubation for 24 hours at 37° C., 5% CO2 and 95% humidity.
The voltage-sensitive fluorescent dye from the Membrane Potential Assay Kit (Red™ Bulk format part R8123 for FLIPR, MDS Analytical Technologies™) is prepared by dissolving the contents of one vessel Membrane Potential Assay Kit Red Component A in 200 ml of extracellular buffer (ES buffer, 120 mM NaCl, 1 mM KCl, 10 mM HEPES, 2 mM CaCl2, 2 mM MgCl2, 10 mM glucose; pH 7.4). After removal of the nutrient medium, the cells are washed once with 200 μl of ES buffer, then loaded for 45 min at room temperature in 100 μl of dye solution in the dark.
Fluorescence measurements are carried out in a BMG Labtech FLUOstar™, BMG Labtech NOVOstar™ or BMG Labtech POLARstar™ instrument (525 nm excitation, 560 nm emission, Bottom Read mode). After incubation with the dye, 50 μl of the test substances in the desired concentrations, or 50 μl of ES buffer for control purposes, are applied to the wells of the assay plate and incubated for 30 min at room temperature while being shielded from light. The fluorescence intensity of the dye is then measured for 5 min and the fluorescence value F1 of each well is thus determined at a given, constant time. 15 μl of a KCl solution are then added to each well (final concentration of potassium ions 92 mM). The change in fluorescence intensity is subsequently monitored until all the relevant values have been obtained (mainly 5-30 min). At a given time post KCl application, a fluorescence value F2 is determined, in this case at the time of the fluorescence peak.
For calculation, the fluorescence intensity F2 is corrected for the fluorescence intensity F1, and the activity (ΔF/F) of the target compound on the potassium channel is determined as follows:
In order to determine whether a substance has agonistic activity, is determined by adding to the well only the buffer solution instead of the test substance, determining the value F1K of the fluorescence intensity, adding the potassium ions as described above, and measuring a value F2K of the fluorescence intensity. F2K and F1K are then calculated as follows: […]
A substance has an agonistic activity on the potassium channel if it is possible to conclude that a target compound has agonistic activity if Calculations of EC50 and IC50 values are carried out with the aid of ‘Prism v4.0’ software (GraphPad Software™).

| SMILES | Emax | EC50 |
| --- | --- | --- |
| CCSc1nc(N2CCOCC2)nc(C)c1C(=O)NCc1cccc(F)c1 [Example 10, 4-Ethylsulfanyl-N-[(3-fluorophenyl)-methyl]-6-methyl-2-morpholin-4-yl-pyrimidine-5-carboxylic acid amide] | 165% | 140 nM |
| CCSc1nc(N2CCOCC2)nc(C)c1C(=O)NCc1ccc(Cl)cc1 [Example 1, N-[(4-Chlorophenyl)-methyl]-4-ethylsulfanyl-6-methyl-2-morpholin-4-yl-pyrimidine-5-carboxylic acid amide] | 137% | 136 nM |
| CCSc1cc(N2CCOC[C@H]2C)nc(C)c1C(=O)NCCCC(C)(C)C [Example 15, N-(4,4-Dimethyl-pentyl)-4-ethylsulfanyl-2-methyl-6-[(3R)-3-methyl-morpholin-4-yl]-pyridine-3-carboxylic acid amide] | 247% | 82 nM |
| CCC(C)c1nc(N2CCOCC2)cnc1C(=O)NCc1ccc(Cl)cc1 (centres unmarked) [Example 20, N-[(4-Chlorophenyl)-methyl]-3-(1-methyl-propyl)-5-morpholin-4-yl-pyrazine-2-carboxylic acid amide] | 88% | 217 nM |
| CC(C)c1nc(N(C)C2CCOCC2)sc1C(=O)NC(C)c1cccc(OC(F)(F)F)c1 (centres unmarked) [Example 9, 4-Isopropyl-2-(methyl-tetrahydro-pyran-4-yl-amino)-N-[1-[3-(trifluoromethyloxy)-phenyl]ethyl]-thiazole-5-carboxylic acid amide] | 104% | 379 nM |
| COc1nc(N2CCOCC2)nc(OC)c1C(=O)NCc1ccc(Cl)cc1 [Example 2, N-[(4-Chlorophenyl)-methyl]-4,6-dimethoxy-2-morpholin-4-yl-pyrimidine-5-carboxylic acid amide] | 147% | 315 nM |
| CCSc1cc(N2CCOCC2)nc(C)c1C(=O)NCc1ccc(Cl)cc1 [Example 3, N-[(4-Chlorophenyl)-methyl]-4-ethylsulfanyl-2-methyl-6-morpholin-4-yl-pyridine-3-carboxylic acid amide] | 171% | 564 nM |
| CC(C)c1nc(N2CCOCC2)cnc1C(=O)NCc1ccc(Cl)cc1 [Example 7, N-[(4-Chlorophenyl)-methyl]-3-isopropyl-5-morpholin-4-yl-pyrazine-2-carboxylic acid amide] | 109% | 482 nM |
| CCSc1cc(N2CCOC[C@H]2C)nc(C)c1C(=O)NCc1ccc(Cl)cc1 [Example 14, N-[(4-Chlorophenyl)-methyl]-4-ethylsulfanyl-2-methyl-6-[(3R)-3-methyl-morpholin-4-yl]-pyridine-3-carboxylic acid amide] | 176% | 194 nM |
| CCSc1cc(N2CCOCC2)nc(C)c1C(=O)NCCCC(C)(C)C [Example 13, N-(4,4-Dimethyl-pentyl)-4-ethylsulfanyl-2-methyl-6-morpholin-4-yl-pyridine-3-carboxylic acid amide] | 241% | 319 nM |
| CCSc1cc(N2CCOCC2)nc(C)c1C(=O)NCc1ccc(F)cc1 [Example 12, 4-Ethylsulfanyl-N-[(4-fluorophenyl)-methyl]-2-methyl-6-morpholin-4-yl-pyridine-3-carboxylic acid amide] | 145% | 1470 nM |
| Cc1nc(N2CCOCC2)cc(C2CC2)c1C(=O)NCc1ccc(Cl)cc1 [Example 16, N-[(4-Chlorophenyl)-methyl]-4-cyclopropyl-2-methyl-6-morpholin-4-yl-pyridine-3-carboxylic acid amide] | 178% | 1420 nM |
| Cc1nc(N2CCOCC2)cc(C(C)C)c1C(=O)NCc1ccc(Cl)cc1 [Example 17, N-[(4-Chlorophenyl)-methyl]-4-isopropyl-2-methyl-6-morpholin-4-yl-pyridine-3-carboxylic acid amide] | 180% | 499 nM |
| CCOc1cc(N2CCOCC2)nc(C)c1C(=O)NCCCC(C)(C)C [Example 5, N-(4,4-Dimethyl-pentyl)-4-ethoxy-2-methyl-6-morpholin-4-yl-pyridine-3-carboxylic acid amide] | 218% | 1350 nM |

Second part, the molecule after the results:

| Emax | EC50 | SMILES |
| --- | --- | --- |
| 131% | 1260 nM | CC(NC(=O)c1sc(N(C)C2CCOCC2)nc1C(F)(F)F)c1cccc(OC(F)(F)F)c1 (centres unmarked) [Example 35, 2-(Methyl-tetrahydro-pyran-4-yl-amino)-4-(trifluoromethyl)-N-[1-[3-(trifluoromethyloxy)-phenyl]-ethyl]-thiazole-5-carboxylic acid amide] |
| 102% | 1260 nM | CN(c1nc(C(F)(F)F)c(C(=O)NCc2ccc(Cl)cc2)s1)C1CCOCC1 [Example 38, N-[(4-Chlorophenyl)-methyl]-2-(methyl-tetrahydro-pyran-4-yl-amino)-4-(trifluoromethyl)-thiazole-5-carboxylic acid amide] |
| 48% | 1260 nM | CC(C)c1nc(N2CCOCC2)sc1C(=O)NCc1ccc(Cl)cc1 [Example 25, N-[(4-Chlorophenyl)-methyl]-4-isopropyl-2-morpholin-4-yl-thiazole-5-carboxylic acid amide] |
| 78% | 1280 nM | CC(NC(=O)c1sc(N2CCOCC2)nc1C(F)(F)F)c1cccc(OC(F)(F)F)c1 (centres unmarked) [Example 40, 2-Morpholin-4-yl-4-(trifluoromethyl)-N-[1-[3-(trifluoromethyloxy)-phenyl]ethyl]-thiazole-5-carboxylic acid amide] |
| 98% | 1140 nM | CC(C)c1nc(N(C)C2CCOCC2)sc1C(=O)NCc1ccc(Cl)cc1 [Example 23, N-[(4-Chlorophenyl)-methyl]-4-isopropyl-2-(methyl-tetrahydro-pyran-4-yl-amino)-thiazole-5-carboxylic acid amide] |
| 132% | 1050 nM | CCC(C)c1nc(N2CCOCC2)cnc1C(=O)NCCC1CCCC1 (centres unmarked) [Example 21, N-(2-Cyclopentyl-ethyl)-3-(1-methyl-propyl)-5-morpholin-4-yl-pyrazine-2-carboxylic acid amide] |
| 78% | 459 nM | CC(C)c1nc(N(C)CC2CCOCC2)sc1C(=O)NC(C)c1cccc(OC(F)(F)F)c1 (centres unmarked) [Example 22, 4-Isopropyl-2-[methyl-(tetrahydro-pyran-4-yl-methyl)-amino]-N-[1-[3-(trifluoromethyloxy)-phenyl]-ethyl]-thiazole-5-carboxylic acid amide] |
| 125% | 1100 nM | CN(c1nc(C(F)(F)F)c(C(=O)NCc2cccc(OC(F)(F)F)c2)s1)C1CCOCC1 [Example 36, 2-(Methyl-tetrahydro-pyran-4-yl-amino)-4-(trifluoromethyl)-N-[[3-(trifluoromethyloxy)-phenyl]-methyl]-thiazole-5-carboxylic acid amide] |
